Results on two molecules are retold here after US20190054135A1, “PLANT OR MICROORGANISM-DERIVED CAROTENOID-OXYGEN COPOLYMER COMPOSITIONS, METHODS OF IDENTIFYING, QUANTIFYING AND PRODUCING SAME AND USES THEREOF” (Avivagen Inc., priority 2016, published 2019).

Data set [1] can be described thus: solubility as noted during extraction and precipitation. Format: physicochemical. The settings on record: pH 12-13. How it is done: Purification and concentration of GA was achieved using chloroform. The chloroform extract contained a complex mixture of substances, including carotenoids and carboxylic acids.
Indeed, addition of hexanes to an ethyl acetate extract of carrot powder #1 yielded a brown precipitate. Redissolving the recovered solid in ethyl acetate and precipitating again with hexanes and repeating the procedure gave a brown solid, which, at ca. 0.7 mg/g, was about 1.4 times the estimated OxPVA level, well within the anticipated range for the GA-based estimate (see Isolated Polymer and Polymer/OxPVA columns in Table 2). A similar ratio (1.6) was found for carrot powder #2, for which the yield of copolymer was around half that of carrot powder #1, in line with the respective relative amounts of GA. Confirmation that the isolated solid is largely composed of carotenoid-oxygen copolymer products was provided by comparison of elemental composition, IR, UV-Vis, GPC and GC-MS thermal decomposition data with the corresponding data for the OxBC polymer.

Another data set has as its system prostate carcinogenesis. The following applies: rat model of prostate carcinogenesis; cited from earlier work.

In the case of `CC(=O)CCCC(C)(C)C(=O)O` [GA, geronic acid], the solubility in water result in data set [1] was “soluble in water”.
Regarding `CC(C)=CCC/C(C)=C/C=C/C(C)=C/C=C/C(C)=C/C=C/C=C(C)/C=C/C=C(C)/C=C/C=C(\C)CCC=C(C)C` [lycopene], the “inhibition of prostate carcinogenesis” value with prostate carcinogenesis is “not lycopene alone inhibited carcinogenesis”.
